Values quoted from earlier work as cited in patent publication US10278642B2, “Methods of assessing metabolic function” (Aurum Biosciences Limited, priority 2012, dated 2019).

Settings: by 100 ml of the liquid at standard pressure and temperature

## FC1(F)C(F)(F)C(F)(F)C2(F)C(F)(F)C(F)(F)C(F)(F)C(F)(F)C2(F)C1(F)F (stereo not shown) [perfluorodecalin]
  oxygen dissolved: 49 mL
